Reference: article PMC9400870 (2022)

Assays:
[1] = test system: pApU (RNA, polymer) A/U; experiment: UV thermal denaturation, 260 nm; details: Na+ (sodium cacodylate, I = 0.05 M), pH 7, per base
[2] = test system: p(dAdT)2 (DNA, polymer) AT; experiment: UV thermal denaturation, 260 nm; details: Na+ (sodium cacodylate, I = 0.05 M), pH 7, polynucleotide 2×10^-5 M, per base
[3] = test system: p(dAdT)2 (DNA, polymer) AT; experiment: fluorimetric titration, Scatchard fit; details: Na+ (sodium cacodylate, I = 0.05 M); pH 7.0; compound 5×10^-7 M; n fixed at 0.1; per base
[4] = test system: pApU (RNA, polymer) A/U; experiment: fluorimetric titration, Scatchard fit; details: Na+ (sodium cacodylate, I = 0.05 M); pH 7.0; compound 5×10^-7 M; n fixed at 0.1; per base
[5] = test system: p(dGdC)2 (DNA, polymer) GC; experiment: fluorimetric titration, Scatchard fit; details: Na+ (sodium cacodylate, I = 0.05 M); pH 7.0; compound 5×10^-7 M; n fixed at 0.1; per base
[6] = r [compound]/[polynucleotide] = 0.3

| ΔTm [1, 6] | ΔTm [2, 6] | log Ks [3] | log Ks [4] | log Ks [5] | ΔTm ([1]; r [compound]/[polynucleotide] = 0.2, polynucleotide 2×10^-5 M) | ΔTm ([2]; r [compound]/[polynucleotide] = 0.2) | SMILES |
| --- | --- | --- | --- | --- | --- | --- | --- |
| 1.0 ± 0.5 °C | 7.0 ± 0.5 °C | 5.2 M^-1 | 5.0 M^-1 | 5.1 M^-1 |  |  | C[n+]1ccc(C#Cc2c(F)c(F)c(C#Cc3cc[n+](C)cc3)c(F)c2F)cc1 |
| 0 ± 0.5 °C | 2.0 ± 0.5 °C | 4.5 M^-1 | 5.3 M^-1 | 5.9 M^-1 |  |  | C[n+]1ccc(C#Cc2ccc(C#Cc3cc[n+](C)cc3)cc2)cc1 |
|  |  | 6.6 M^-1 | 5.3 M^-1 | 7.0 M^-1 | 39.0 ± 0.5 °C | 37 ± 0.5 °C | C[n+]1ccc(C#Cc2c3ccccc3c(C#Cc3cc[n+](C)cc3)c3ccccc23)cc1 |
